Reference: publication PMC8480901 (PLoS ONE, 2021)
Values joined by “and” are separate entries in the source; they are usually repeats but may differ in a detail not shown here. Equal entries are not always repeated.

Test system: J774.2 mouse macrophages
Assay: LPS-induced cytokine and chemokine levels in J774.2 mouse macrophage cell supernatant (ELISA)
Format: cell-based
Conditions: LPS; for CCl2, % reduction / CCl2, Mean / GM-CSF % reduction / GM-CSF Mean / IL-1β % reduction / IL-1β Mean / IL-6 % reduction / IL-6 Mean / TNF-α % reduction / TNF-α Mean / CCl2 / CXCL1 / GM-CSF / IL-1β / IL-6 / TNF-α: J774.2 supernatant; for CCl2 / CXCL1 / GM-CSF / IL-1β / IL-6 / TNF-α / CXCL2 / MMP9: individual replicate; for CXCL2 / MMP9: J774.2 cells

## CC[C@H]1OC(=O)[C@H](C)[C@@H](O[C@H]2C[C@@](C)(OC)[C@@H](O)[C@H](C)O2)[C@H](C)[C@@H](O[C@@H]2O[C@H](C)C[C@H](N(C)C)[C@H]2O)[C@](C)(O)C[C@@H](C)CN(C)[C@H](C)[C@@H](O)[C@]1(C)O [Azithromycin]
1 µM
  CCl2, % reduction: 17%
  CCl2, Mean: 29990 pg/mL
  GM-CSF % reduction: 67%
  GM-CSF Mean: 467 pg/mL
  IL-1β % reduction: 4.32%
  IL-1β Mean: 183 pg/mL
  IL-6 % reduction: 10%
  IL-6 Mean: 69772 pg/mL
  TNF-α % reduction: -11%
  TNF-α Mean: 1515 pg/mL
  CCl2: 27895.3 pg/mL and 32084.6 pg/mL
  CXCL1: 29.3 pg/mL and 31.2 pg/mL
  GM-CSF: 431.5 pg/mL and 502.0 pg/mL
  IL-1β: 188.28 pg/mL and 176.943 pg/mL
  IL-6: 65142 pg/mL and 74401 pg/mL
  TNF-α: 1479.7 pg/mL and 1551.1 pg/mL
3 µM
  CCl2, % reduction: 4%
  CCl2, Mean: 34644 pg/mL
  GM-CSF % reduction: 57%
  GM-CSF Mean: 606 pg/mL
  IL-1β % reduction: -7%
  IL-1β Mean: 204 pg/mL
  IL-6 % reduction: 7%
  IL-6 Mean: 71996 pg/mL
  TNF-α % reduction: -31%
  TNF-α Mean: 1780 pg/mL
  CCl2: 38396.7 pg/mL and 30890.3 pg/mL
  CXCL1: 37.9 pg/mL and 28.5 pg/mL
  GM-CSF: 728.6 pg/mL and 484.1 pg/mL
  IL-1β: 204.824 pg/mL and 203.959 pg/mL
  IL-6: 78966 pg/mL and 65026 pg/mL
  TNF-α: 1995.5 pg/mL and 1564.5 pg/mL
10 µM
  CCl2, % reduction: 9%
  CCl2, Mean: 32971 pg/mL
  GM-CSF % reduction: 52%
  GM-CSF Mean: 674 pg/mL
  IL-1β % reduction: 1.15%
  IL-1β Mean: 189 pg/mL
  IL-6 % reduction: 15%
  IL-6 Mean: 65894 pg/mL
  TNF-α % reduction: -25%
  TNF-α Mean: 1709 pg/mL
  CCl2: 34921.6 pg/mL and 31021.1 pg/mL
  CXCL1: 42.9 pg/mL and 34.6 pg/mL
  GM-CSF: 752.0 pg/mL and 595.8 pg/mL
  IL-1β: 185.693 pg/mL and 191.532 pg/mL
  IL-6: 62169 pg/mL and 69619 pg/mL
  TNF-α: 1793.0 pg/mL and 1624.6 pg/mL
30 µM
  CCl2, % reduction: -14%
  CCl2, Mean: 40819 pg/mL
  GM-CSF % reduction: 66%
  GM-CSF Mean: 483 pg/mL
  IL-1β % reduction: 28%
  IL-1β Mean: 138 pg/mL
  IL-6 % reduction: 43%
  IL-6 Mean: 44169 pg/mL
  TNF-α % reduction: -15%
  TNF-α Mean: 1566 pg/mL
  CCl2: 40980.3 pg/mL and 40657.2 pg/mL
  CXCL1: 68.6 pg/mL and 51.5 pg/mL
  GM-CSF: 510.8 pg/mL and 455.1 pg/mL
  IL-1β: 129.379 pg/mL and 146.376 pg/mL
  IL-6: 40788 pg/mL and 47550 pg/mL
  TNF-α: 1637.1 pg/mL and 1494.0 pg/mL
100 µM
  CCl2, % reduction: 12%
  CCl2, Mean: 31879 pg/mL
  GM-CSF % reduction: 76%
  GM-CSF Mean: 343 pg/mL
  IL-1β % reduction: 36%
  IL-1β Mean: 122 pg/mL
  IL-6 % reduction: 69%
  IL-6 Mean: 24231 pg/mL
  TNF-α % reduction: -21%
  TNF-α Mean: 1656 pg/mL
  CCl2: 33824.3 pg/mL and 29933.1 pg/mL
  CXCL1: 66.2 pg/mL and 50.6 pg/mL
  GM-CSF: 399.7 pg/mL and 287.0 pg/mL
  IL-1β: 120.112 pg/mL and 124.217 pg/mL
  IL-6: 25573 pg/mL and 22888 pg/mL
  TNF-α: 1818.4 pg/mL and 1493.5 pg/mL
Compound 0.03 µM
  CXCL2: 14544.8 pg/mL and 27111.4 pg/mL
  MMP9: 1137.13 pg/mL and 1348.53 pg/mL
Compound 0.1 µM
  CXCL2: 14262.2 pg/mL and 26368.8 pg/mL
  MMP9: 973.296 pg/mL and 1170.61 pg/mL
Compound 0.3 µM
  CXCL2: 19194.7 pg/mL and 27003.7 pg/mL
  MMP9: 981.336 pg/mL and 1072.64 pg/mL
Compound 1 µM
  CXCL2: 28271.6 pg/mL and 28293.6 pg/mL
  MMP9: 1115.62 pg/mL and 1010.37 pg/mL
Compound 3 µM
  CXCL2: 17053.3 pg/mL and 14683.3 pg/mL
  MMP9: 1120.5 pg/mL
Compound 10 µM
  CXCL2: 20008.2 pg/mL and 16019.2 pg/mL
  MMP9: 846.885 pg/mL and 873.775 pg/mL
Compound 30 µM
  CXCL2: 23084.4 pg/mL and 24875.0 pg/mL
  MMP9: 575.954 pg/mL and 501.629 pg/mL
Compound 100 µM
  CXCL2: 19137.4 pg/mL and 23402.0 pg/mL
  MMP9: 340.616 pg/mL and 323.365 pg/mL
